Results taken from PMC8497620, “Structure and inhibition of Cryptococcus neoformans sterylglucosidase to develop antifungal agents” (Nature Communications, 2021).
“And” between values parts separate entries of the source, which are not always exact repeats. Equal values may be shown once. “Also recorded” adds a separate entry of the source.

Columns and labels:
C. neoformans H99 = assay type: in vivo, Cryptococcus neoformans; conditions: Hit 1 intranasally, fluconazole intraperitoneally
Description: For animal studies, 4-week-old CBA/J (Envigo) female mice were used. Mouse experiments were performed in full compliance with a protocol approved by Stony Brook University (IACUC number 341588) and in compliance with the United States Animal Welfare Act (Public Law 98–198). The experiments were carried out in facilities accredited by the Association for Assessment and Accreditation of Laboratory Animal Care. Mice were divided into sets of 12 mice for each treatment or control group (4 animals per cage) kept in an animal room (temperature, 22–24 °C; relative humidity, 35–45%) with artificial 12–12 h dark/light cycle. For the experiment with intraperitoneal (i.p.) treatment, mice were infected intranasally with 10 µL of a suspension containing 1 × 10^6 C. neoformans H99 cells and subsequently treated through i.p. injection with 10 mg/kg/day of hit 1 in a final volume of 100 µL of vehicle containing 10% PEG 200 in PBS. The untreated animals received 100 µL of vehicle. For the experiment with intranasal (i.n.) treatment, mice were infected with 1 × 10^5 C. neoformans H99 cells and received i.n. treatment with hit 1 in a final volume of 10 µL. Another group received treatment with 10 mg/kg/day of fluconazole i.p. and a third group received the combined treatment of hit1 by i.n. and fluconazole by i.p. Animals receiving only vehicle i.n. were used as a control group. In both experiments, three mice of each group were euthanized at day 3, 6, 9, and 14 post infection for CFU recovery from lungs and CFU recovery from brain on day 14.

C. neoformans Sgl1 [1] = target: T1, C. neoformans Sgl1 (Cryptococcus neoformans var. grubii, UniProt J9W473); test: Sgl1 inhibition with res-glp substrate (HTS, single-compound dose-response); assay type: biochemical; conditions: res-glp as substrate (100 µM), primary screen; read-out: IC50 against Sgl1
T1 sequence (J9W473 entry or part of it): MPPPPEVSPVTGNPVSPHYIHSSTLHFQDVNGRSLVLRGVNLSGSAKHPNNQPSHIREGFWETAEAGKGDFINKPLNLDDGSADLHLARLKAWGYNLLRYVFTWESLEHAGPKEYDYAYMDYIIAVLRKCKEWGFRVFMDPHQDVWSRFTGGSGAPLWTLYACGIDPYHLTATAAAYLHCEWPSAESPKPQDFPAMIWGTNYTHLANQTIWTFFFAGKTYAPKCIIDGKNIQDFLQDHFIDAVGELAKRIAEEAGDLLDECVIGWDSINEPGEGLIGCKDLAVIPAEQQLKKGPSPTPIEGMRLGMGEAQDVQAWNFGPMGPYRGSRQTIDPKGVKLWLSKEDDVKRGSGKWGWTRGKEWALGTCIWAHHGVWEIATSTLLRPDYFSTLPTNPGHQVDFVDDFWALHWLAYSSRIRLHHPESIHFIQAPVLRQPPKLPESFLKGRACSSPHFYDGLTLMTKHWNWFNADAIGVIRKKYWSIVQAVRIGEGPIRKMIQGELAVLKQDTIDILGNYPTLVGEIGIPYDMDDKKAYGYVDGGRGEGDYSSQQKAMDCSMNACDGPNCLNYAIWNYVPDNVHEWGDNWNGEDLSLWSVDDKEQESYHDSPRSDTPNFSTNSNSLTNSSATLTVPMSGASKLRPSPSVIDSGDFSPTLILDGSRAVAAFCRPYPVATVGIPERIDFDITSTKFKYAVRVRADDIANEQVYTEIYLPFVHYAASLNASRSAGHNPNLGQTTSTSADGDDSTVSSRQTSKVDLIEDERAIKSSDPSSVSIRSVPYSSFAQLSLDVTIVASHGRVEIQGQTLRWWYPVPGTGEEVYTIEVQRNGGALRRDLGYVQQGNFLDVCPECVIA
Description: Resorufin-3β-D-glucopyranoside (res-glp, Sigma-Aldrich) enzyme kinetic assays were performed according to methods described by Urban et al.[16] with modifications. Reaction buffer contained 50 mM citric acid, 176 mM K2HPO4, pH 6, 0.01% Tween-20, and 10 mM sodium taurocholate. The reactions were carried out in black 96-well plates using 20 ng of enzyme with 100 μM res-glp substrate. In all, 10 μL/well of res-glp substrate was added to each well and the reaction was initiated by adding 20 μL enzyme (20 ng). After incubation at 37 °C for 30–40 min, the fluorescence was read at an excitation of 570 (±10) nm and an emission of 610 (±10) nm on a VersaMax™ Microplate Reader from Molecular Devices. A standard curve was prepared with serial dilutions of the free fluorophore, resorufin, in the same volume of assay buffer.
A ChemBridge DIVERSet-CL library (San Diego, CA) containing 50,000 compounds was screened to identify small molecules that inhibit C. neoformans Sgl1. The library was prepared in a 96-well plate format containing a cocktail of 10 compounds per well at 1 mM each in 100% DMSO. The cocktail plates were first diluted to 100 μM each (1:10 dilution in Dulbecco’s phosphate-buffered saline, DPBS) resulting in 10% DMSO. In order to screen the compound cocktails at […] in 1% DMSO in a final reaction volume of 30 μL an aliquot of 3 μL was added to 17 μL of buffer containing 20 ng of enzyme and the reaction was started adding 10 μL of 100 μM res-glp. A negative control without enzyme and positive controls with and without DMSO were prepared. The plates were incubated at 37 °C for 40 min.
The Z′-factor was used for the assessment of the efficiency of the HTS assay for each individual plate. Values greater than 0.5 has been considered as an indicator of an excellent screening assay quality.

[2] = tested on: human lung epithelial cancer cell line A549; conditions: A549 cells, 24 h, MTT
Description: The cells were maintained in Dulbecco’s modified eagle medium containing 10% fetal bovine serum and 1% penicillin–streptomycin. At passage 11, 10^5 cells were transferred into each well of 96-well plates and cultured for 18–24 h for the cells to adhere to the well surface. After, the medium was removed and a fresh medium containing the selected compounds at a concentration range of 1–512 μM were added to the wells. Controls with equivalent serial concentrations of DMSO were also evaluated and compared with a control without DMSO. The plate was incubated at 37 °C with 5% CO2. After 24 h, the supernatant was removed and 50 μL of 5 mg/mL 3-(4,5-dimethylthiazol-2-yl)-2,5-diphenyltetrazoliumbromide (MTT) solution in phosphate-buffered saline (PBS) was added to each well. The plates were incubated for an additional 4 h and the formazan crystals formed inside the cell was dissolved by adding 50 μL DMSO.

C. neoformans Sgl1 [3] = target: T1, C. neoformans Sgl1; test: Enzymatic evaluation of C. neoformans Sgl1 against the fungal glucosylceramide (LC-MS); assay type: biochemical; conditions: 10 μg substrate, 10 or 50 μg Sgl1, pH 5.5, 37 °C, 4 h
Description: (§1) To verify the enzymatic activity of C. neoformans Sgl1 against the fungal long-chain glucosylceramide (GlcCer, OH-Δ8,9-methyl-glucosylceramide), kindly provided by Khojin (Japan). The reactions used 10 μg of substrate and 10 or 50 μg of C. neoformans Sgl1 or cerezyme (Genzyme Corporation, Cambridge, MA, USA) in 100 μL acetate buffer pH 5.5 incubated at 37 °C for 4 h[11]. The reaction was terminated by adding 300 μL of chloroform/methanol (1:1 ratio) and the lower phase was collected and dried. 9-Methyl-ceramide production was monitored by liquid chromatography-mass spectrometry (LC-MS).

[4] = Hydrolysis of fungal long-chain glucosylceramide by cerezyme (9-methyl-ceramide by LC-MS); assay type: biochemical; conditions: 4 h; for 9-methyl ceramide: 10 μg fungal GlcCer, 37 °C
Description: as §1

OC(Cn1cncn1)(Cn1cncn1)c1ccc(F)cc1F [Fluconazole, fluconazole, reference compound]
lung CFU compared to vehicle (C. neoformans H99; 14 days of treatment): significant difference among CFU recovered from the lungs; also recorded: slightly reduced lung CFU
brain dissemination / CFU recovered from the brain (C. neoformans H99; 14 days): did not prevent C. neoformans brain dissemination
Lung (CFU/mL) (C. neoformans H99; day 6 post infection, 10 mg/kg/day each, 10 mg/kg/day): 60000 CFU/mL and 120000 CFU/mL and 92000 CFU/mL

Cc1[nH]c2ccc(CNc3nccc(N)n3)cc2c1C [Hit 6]
IC50 (C. neoformans Sgl1 [1]): 2000 nM
LD50 (lethal dose 50) [2]: 181.3 µM

CCCCCCCCCCCCCCCCC(O)C(=O)NC(COC1OC(CO)C(O)C(O)C1O)C(O)C=CCCC=C(C)CCCCCCCCC (stereo not shown) [fungal glucosylceramide, OH-Δ8,9-methyl-glucosylceramide]
hydrolysis by Sgl1 (C. neoformans Sgl1 [3]): unable to detect hydrolysis

CN1C[C@H](Nc2nc(C(C)(C)C)nc3c2cnn3C)C[C@H]1CO [Hit 14]
IC50 (C. neoformans Sgl1 [1]): 1000 nM
LD50 (lethal dose 50) [2]: 357 µM

CN1C[C@H](NS(=O)(=O)c2cc(Cl)ccc2Cl)C[C@H]1CO [Hit 13]
IC50 (C. neoformans Sgl1 [1]): 2000 nM
LD50 (lethal dose 50) [2]: 217.3 µM

B1: Cerezyme: recombinant human glucosylceramidase (Genzyme Corporation) (protein, chains of the INN, looked up)
chain: ARPCIPKSFGYSSVVCVCNATYCDSFDPPTFPALGTFSRYESTRSGRRMELSMGPIQANHTGTGLLLTLQPEQKFQKVKGFGGAMTDAAALNILALSPPAQNLLLKSYFSEEGIGYNIIRVPMASCDFSIRTYTYADTPDDFQLHNFSLPEEDTKLKIPLIHRALQLAQRPVSLLASPWTSPTWLKTNGAVNGKGSLKGQPGDIYHQTWARYFVKFLDAYAEHKLQFWAVTAENEPSAGLLSGYPFQCLGFTPEHQRDFIARDLGPTLANSTHHNVRLLMLDDQRLLLPHWAKVVLTDPEAAKYVHGIAVHWYLDFLAPAKATLGETHRLFPNTMLFASEACVGSKFWEQSVRLGSWDRGMQYSHSIITNLLYHVVGWTDWNLALNPEGGPNWVRNFVDSPIIVDITKDTFYKQPMFYHLGHFSKFIPEGSQRVGLVASQKNDLDAVALMHPDGSAVVVVLNRSSKDVPLTIKDPAVGFLETISPGYSIHTYLWHRQ
9-methyl ceramide ([4]; Cerezyme 10 μg): 221.543 pmol/mL and 250.417 pmol/mL and 226.634 pmol/mL and 267.483 pmol/mL
9-methyl ceramide ([4]; Cerezyme 50 g (so in the source)): 243.428 pmol/mL and 279.737 pmol/mL and 384.828 pmol/mL and 393.256 pmol/mL
hydrolysis of fungal glucosylceramide ([4]; positive control, pH 5.5, 37 °C): readily hydrolyzed fungal glucosylceramide
